Data on 21 compounds can be found in EP4752152A1, “STEROID COMPOUND, AND PREPARATION METHOD THEREFOR AND USE THEREOF” (Cholesgen (Shanghai) Co.Ltd., priority 2023, dated 2025).

Each structure is given as a SMILES string.

The subject of the first experiment is SREBP pathway. The experiment in a line: SREBP luciferase reporter gene system (SRE-luciferase assay). Format: cell-based, human. To be noted: Homo sapiens, Huh-7, 16 h, Huh-7/SRE-luc cells, sterol-deficient medium, 0.01-10 µM. In a few lines:
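Readout was SRE-driven luciferase normalised to GFP fluorescence in lysates of stably transfected Huh-7/SRE-luc hepatoma cells. Compounds (0.01, 0.03, 0.1, 0.3, 1.0, 3.0, 10 µM; DMSO control) were applied for 16 h in sterol-depleted medium with 2 µM lovastatin and 10 µM mevalonate; IC50 from variable-slope fit.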
In general terms: In a reporter assay the amount or activity of a reporter protein is the signal.
`COc1ncc(F)cc1[C@H](O)CCC[C@@H](C)[C@H]1CC[C@H]2[C@H]3[C@H](CC[C@]12C)[C@@]1(C)CC[C@H](O)[C@H](O)[C@@H]1CC3(F)F` (single isomer, unassigned) [Compound 231]: the IC50 (usually the concentration at which inhibition is half-maximal) amounted to 0.062 µM. Regarding `C[C@H](CCCC(O)c1ccccc1OC(F)(F)F)[C@H]1CC[C@H]2C3=C(F)C[C@H]4[C@@H](O)[C@@H](O)CC[C@]4(C)[C@H]3CC[C@]12C` (stereo partly drawn) [Compound 2, (1R,3aR,5aR,6R,7S,9aR,9bR,11aR)-4-fluoro-1-[(2R)-6-hydroxy-6-{2-[(trifluoromethyl)oxy]phenyl}hexan-2-yl]-9a,11a-dimethyl-2,3,3a,5,5a,6,7,8,9,9a,9b,10,11,11a-tetradecahydro-1H-cyclopenta[1,2-a]phenanthrene-6,7-diol], the IC50 came to 0.45 µM. With `C[C@H](CCCC(O)c1cccc2nn[nH]c12)[C@H]1CC[C@H]2[C@H]3[C@H](CC[C@]12C)[C@@]1(C)CC[C@H](O)[C@H](O)[C@@H]1CC3(F)F` (single isomer, unassigned) [Compound 294, (1R,3aS,3bS,5aR,6R,7S,9aR,9bS,11aR)-4,4-difluoro-1-[(2R,6S)-6-hydroxy-6-(3H-benzo[d][1,2,3]triazol-4-yl)hexan-2-yl]-9a,11a-dimethylhexadecahydro-1H-cyclopenta[1,2-a]phenanthrene-6,7-diol or (1R,3aS,3bS,5aR,6R,7S,9aR,9bS,11aR)-4,4-difluoro-1-[(2R,6R)-6-hydroxy-6-(3H-benzo[d][1,2,3]triazol-4-yl)hexan-2-yl]-9a,11a-dimethylhexadecahydro-1H-cyclopenta[1,2-a]phenanthrene-6,7-diol], the IC50 was 0.424 µM.

Take `C[C@H](CCC[C@H](O)c1ccccn1)[C@H]1CC[C@H]2[C@H]3[C@H](CC[C@]12C)[C@@]1(C)CC[C@H](O)[C@H](O)[C@@H]1CC3(F)F` [Compound 91, (1R,3aS,3bS,5aR,6R,7S,9aR,9bS,11aR)-4,4-difluoro-1-[(2R,6S)-6-hydroxy-6-(pyridin-2-yl)hexan-2-yl]-9a,11a-dimethylhexadecahydro-1H-cyclopenta[1,2-a]phenanthrene-6,7-diol]: the half-inhibitory concentration (IC50) was found to be 0.378 µM. Same read-out and setting: with `C[C@H](CCC1CC(=NO)C1)[C@H]1CC[C@H]2[C@@H]3CC[C@H]4C[C@@H](O)CC[C@]4(C)[C@H]3CC[C@]12C` (stereo partly drawn) [Compound 135, {3-[(3R)-3-[(1R,3aS,3bR,5aS,7S,9aS,9bS,11aR)-7-hydroxy-9a,11a-dimethylhexadecahydro-1H-cyclopenta[1,2-a]phenanthren-1-yl]butyl]cyclobutylidene}hydroxylamine] the figure was 4.03 µM; with `C[C@H](CCC[C@H](O)c1ncc(F)cc1F)[C@H]1CC[C@H]2[C@H]3[C@H](CC[C@]12C)[C@@]1(C)CC[C@H](O)[C@H](O)[C@@H]1CC3(F)F` (single isomer, unassigned) [Compound 279], 0.202 µM; with `C[C@H](CCC[C@@H](O)c1ncc(F)cc1F)[C@H]1CC[C@H]2[C@H]3[C@H](CC[C@]12C)[C@@]1(C)CC[C@H](O)[C@H](O)[C@@H]1CC3(F)F` (single isomer, unassigned) [Compound 280], 0.238 µM.

`C[C@H](CCCC(O)c1cccc2nn[nH]c12)[C@H]1CC[C@H]2[C@H]3[C@H](CC[C@]12C)[C@@]1(C)CC[C@H](O)[C@H](O)[C@@H]1CC3(F)F` (stereo partly drawn) [Compound 282, (1R,3aS,3bS,5aR,6R,7 S,9aR,9bS,11aR)-4,4-Difluoro-1-[(2R)-6-hydroxy-6-(3H-benzo[d][1,2,3]triazol-4-yl)hexan-2-yl]-9a,11a-dimethylhexadecahydro-1H-cyclopenta[1,2-a]phenanthrene-6,7-diol]: the half-maximal inhibitory concentration (IC50) came out at 0.389 µM. With `COc1ccnc(C[C@H](O)CCC[C@@H](C)[C@H]2CC[C@H]3[C@H]4[C@H](CC[C@]23C)[C@@]2(C)CC[C@H](O)[C@H](O)[C@@H]2CC4(F)F)c1` (stereo in doubt) [Compound 305, (1R,3aS,3bS,5aR,6R,7S,9aR,9bS,11aR)-4,4-difluoro-1-[(2R,6R)-6-hydroxy-7-(4-methoxypyridin-2-yl)heptan-2-yl]-9a,11a-dimethylhexadecahydro-1H-cyclopenta[1,2-a]phenanthrene-6,7-diol], the IC50 was 0.253 µM. As for `C[C@H](CCCC(O)c1c(F)ccnc1F)[C@H]1CC[C@H]2C3=C(F)C[C@H]4[C@@H](O)[C@@H](O)CC[C@]4(C)[C@H]3CC[C@]12C` (stereo partly drawn) [Compound 145, (1R,3aR,5aR,6R,7S,9aR,9bR,11aR)-1-[(2R)-6-(2,4-difluoropyridin-3-yl)-6-hydroxyhexan-2-yl]-4-fluoro-9a,11a-dimethyl-2,3,3a,5,5a,6,7,8,9,9a,9b,10,11,11a-tetradecahydro-1H-cyclopenta[1,2-a]phenanthrene-6,7-diol], the IC50 is 0.35 µM.

Regarding `COc1cc(F)nc(OC)c1[C@H](O)CCC[C@@H](C)[C@H]1CC[C@H]2[C@H]3[C@H](CC[C@]12C)[C@@]1(C)CC[C@H](O)[C@H](O)[C@@H]1CC3(F)F` (single isomer, unassigned) [Compound 264], the IC50 is 0.189 µM. Regarding `COc1cccc(F)c1C(O)CCCC(C)C1CCC2C3=C(F)CC4C(O)C(O)CCC4(C)C3CCC21C` (single isomer, unassigned) [Compound 163], the IC50 was 0.201 µM. Consider `COc1ccccc1C(O)CCC[C@@H](C)[C@H]1CC[C@H]2C3=C(F)C[C@H]4C[C@@H](O)CC[C@]4(C)[C@H]3CC[C@]12C` (stereo partly drawn) [Compound 73, (1R,3aR,5aR,7S,9aS,9bR,11aR)-4-fluoro-1-[(2R)-6-hydroxy-6-(2-methoxyphenyl)hexan-2-yl]-9a,11a-dimethyl-2,3,3a,5,5a,6,7,8,9,9a,9b,10,11,11a-tetradecahydro-1H-cyclopenta[1,2-a]phenanthren-7-ol], for which the IC50 came to 0.55 µM. On the same count and under the same terms, with `C[C@H](CCCC(O)c1c2ccccc2nn1C)[C@H]1CC[C@H]2[C@H]3[C@H](CC[C@]12C)[C@@]1(C)CC[C@H](O)[C@H](O)[C@@H]1CC3(F)F` (stereo partly drawn) [Compound 325, (1R,3aS,3bS,5aR,6R,7 S,9aR,9bS,11aR)-4,4-Difluoro-1-[(2R)-6-hydroxy-6-(2-methylindazol-3-yl)hexan-2-yl]-9a,11a-dimethylhexadecahydro-1H-cyclopenta[1,2-a]phenanthrene-6,7-diol] the figure was 0.148 µM; with `C[C@H](CCC[C@@H](O)c1n[nH]c2ccccc12)[C@H]1CC[C@H]2[C@H]3[C@H](CC[C@]12C)[C@@]1(C)CC[C@H](O)[C@H](O)[C@@H]1CC3(F)F` (stereo in doubt) [Compound 320, (1R,3aS,3bS,5aR,6R,7S,9aR,9bS,11aR)-4,4-difluoro-1-[(2R,6R)-6-hydroxy-6-(1H-indazol-3-yl)hexan-2-yl]-9a,11a-dimethylhexadecahydro-1H-cyclopenta[1,2-a]phenanthrene-6,7-diol], 0.207 µM.

As for `C[C@H](CCC[C@H](O)c1nnnn1C)[C@H]1CC[C@H]2[C@H]3[C@H](CC[C@]12C)[C@@]1(C)CC[C@H](O)C[C@@H]1CC3(F)F` (single isomer, unassigned) [Compound 380], the half-inhibitory concentration (IC50) is 0.152 µM. For the compound `C[C@H](CCC[C@H](O)c1ccc(F)nc1OCC1COC1)[C@H]1CC[C@H]2[C@H]3[C@H](CC[C@]12C)[C@@]1(C)CC[C@H](O)[C@H](O)[C@@H]1CC3(F)F` [Compound 385, (1R,3aS,3bS,5aR,6R,7S,9aR,9bS,11aR)-4,4-difluoro-1-[(2R,6S)-6-{6-fluoro-2-[(oxetan-3-ylmethyl)oxy]pyridin-3-yl}-6-hydroxyhexan-2-yl]-9a,11a-dimethylhexadecahydro-1H-cyclopenta[1,2-a]phenanthrene-6,7-diol], the IC50 came to 0.332 µM. On to `C[C@H](CCC1CC(=O)C1)[C@H]1CC[C@H]2[C@@H]3CC[C@H]4C[C@@H](O)CC[C@]4(C)[C@H]3CC[C@]12C` [Compound 129, 3-[(3R)-3-[(1R,3aS,3bR,5aS,7S,9aS,9bS,11aR)-7-hydroxy-9a,11a-dimethylhexadecahydro-1H-cyclopenta[1,2-a]phenanthren-1-yl]butyl]cyclobutan-1-one], for which the IC50 was 0.32 µM.

Still in this experiment, the particulars now being: Huh-7/SRE-luc cells, sterol-deficient medium, 16 hours, 0.01-10 µM.
Take `COc1ccc(F)c(C(O)CCC[C@@H](C)[C@H]2CC[C@H]3[C@H]4[C@H](CC[C@]23C)[C@@]2(C)CC[C@H](O)[C@H](O)[C@@H]2CC4(F)F)c1` (single isomer, unassigned) [Compound 167, (1R,3aS,3bS,5aR,6R,7S,9aR,9bS,11aR)-4,4-difluoro-1-[(2R,6R)-6-(2-fluoro-5-methoxyphenyl)-6-hydroxyhexan-2-yl]-9a,11a-dimethylhexadecahydro-1H-cyclopenta[1,2-a]phenanthrene-6,7-diol or (1R,3aS,3bS,5aR,5aR,6R,7S,9aR,9bS,11aR) -4,4-difluoro-1-[(2R,6S)-6-(2-fluoro-5-methoxyphenyl)-6-hydroxyhexan-2-yl]-9a,11a-dimethylhexadecahydro-1H-cyclopenta[1,2-a]phenanthrene-6,7-diol]: the IC50 came out at 0.88 µM. As to `C[C@H](CCC[C@H](O)c1cc2ccccc2o1)[C@H]1CC[C@H]2[C@H]3[C@H](CC[C@]12C)[C@@]1(C)CC[C@H](O)[C@H](O)[C@@H]1CC3(F)F` [Compound 321, (1R,3aS,3bS,5aR,6R,7S,9aR,9bS,11aR)-1-[(2R,6S)-6-(1-benzofuran-2-yl)-6-hydroxyhexan-2-yl]-4,4-difluoro-9a,11a-dimethylhexadecahydro-1H-cyclopenta[1,2-a]phenanthrene-6,7-diol], the IC50 was 0.114 µM. `C[C@H](CCCC(O)c1cccc2[nH]ncc12)[C@H]1CC[C@H]2[C@H]3[C@H](CC[C@]12C)[C@@]1(C)CC[C@H](O)[C@H](O)[C@@H]1CC3(F)F` (single isomer, unassigned) [Compound 274, (1R,3aS,3bS,5aR,6R,7S,9aR,9bS,11aR)-4,4-difluoro-1-[(2R,6R)-6-hydroxy-6-(1H-indazol-4-yl)hexan-2-yl]-9a,11a-dimethylhexadecahydro-1H-cyclopenta[1,2-a]phenanthrene-6,7-diol or (1R,3aS,3bS,5aR,6R,7S,9aR,9bS,11aR)-4,4-difluoro-1-[(2R,6S)-6-hydroxy-6-(1H-indazol-4-yl)hexan-2-yl]-9a,11a-dimethylhexadecahydro-1H-cyclopenta[1,2-a]phenanthrene-6,7-diol]: the IC50 was 0.758 µM.
